Inconclusive results are not listed. Calls of active or inactive are those of the source. No rule for the calls is given here.

The test system of this test is Mycobacterium tuberculosis non-replicating, growth inhibition. Briefly: growth inhibition of non-replicating M. tuberculosis (AID 488890).
Regarding `CCCCNC(=O)Nc1nnc(-c2ccc(Cl)cc2)o1`, the IC50 is 22.8 µM (inactive).
Turning to `CCC1CCCCN1S(=O)(=O)c1ccc(C(=O)Nc2nnc(-c3cccs3)o2)cc1` (stereo unspecified), the IC50 was 11 µM (inactive).
To `CC(NCC(O)COCCC12CC3CC(CC(C3)C1)C2)c1ccccc1` (stereo unspecified) belongs 7.88 µM; to `COc1ccc(Nc2ccccc2N)cc1`, 2.72 µM; to `Cc1cccc(NCc2ccc([N+](=O)[O-])s2)c1`, 22.2 µM (inactive).
Take `O=C(CCNc1ccc(Cl)c(C(F)(F)F)c1)c1ccco1`: the half-maximal inhibitory concentration (IC50) is 5.63 µM.
To `NC(=S)n1[nH]c(-c2ccc([N+](=O)[O-])cc2)c(N=Nc2ccc(O)cc2)c1=O` belongs 18.5 µM (inactive); to `CCc1cccc(OCCCn2ccnc2)c1`, 18.7 µM (inactive); to `CSc1nnc(Cc2ccc3c(c2)OCO3)o1`, 7.56 µM.
In the case of `CCOC(=O)C(C)(C)n1nnc(-c2ccc([N+](=O)[O-])cc2)n1`, the IC50 was 14.3 µM (inactive).
With `CCCCOC(=O)Cn1c(-c2ccccc2)nc2ccccc2c1=O` the figure was 11.3 µM (inactive); with `O=C(OCc1nc2ccccc2s1)c1ccc(Br)o1`, 3.63 µM; with `COc1cccc(/C=C2\SC(=S)N(CCC(=O)N3CCCCC3)C2=O)c1`, 9.08 µM.
As to `CC1CCC/C(=C\Nc2ccc(C(=O)O)c(O)c2)C1=O` (stereo unspecified), the IC50 is less than 0.1 µM.
`N=c1oc2ccccc2cc1C(=O)Nc1ccccc1`: the IC50 was 33 µM (inactive).
With `CCCn1nnnc1NCc1ccc(CC)cc1` the figure was 8.41 µM; with `COc1ccc(-c2noc(-c3cc4ccccc4oc3=O)n2)cc1`, 5.06 µM.
With `CCOC(=O)C1CCN(C(=O)COc2cc(C)c(Br)c(C)c2)CC1` the figure was 18.3 µM (inactive).
As to `N/C(=N\OC(=O)CC1CCCCC1)c1ccncc1`, the concentration for half-maximal inhibition (IC50) is 6.38 µM.
Turning to `CC(=O)c1ccc(-n2cc(-c3ccc(C(C)(C)C)cc3)[n+]3c2SCCC3)cc1`, the half-maximal inhibitory concentration (IC50) is 6.18 µM.
For `OC(CNCCc1ccc(C(F)(F)F)cc1)COc1ccc2ccccc2c1` (stereo unspecified), the half-maximal inhibitory concentration (IC50) was 8.28 µM.
With `CC1CCCC(NCC(O)COC(c2ccc(F)cc2)c2ccc(F)cc2)C1C` (stereo unspecified) the figure was 5.8 µM; with `CCOC(=O)c1c(NC(C)=O)sc2c(OCC(O)CNC(C)(C)C)c(Br)ccc12` (stereo unspecified), 4.44 µM; with `CC1(C)CC(=O)C2=C(C1)OC(N)=C(C#N)C2C#Cc1ccccc1` (stereo unspecified), 4.07 µM.
To `CCOC(=O)/C=C1\Nc2ccccc2OC1=O` belongs 3 µM; to `Cc1ccccc1-n1ncc2c([N+](=O)[O-])cc([N+](=O)[O-])cc21`, 4.83 µM; to `Nc1nc2ccccc2n1CCOc1ccc(Br)cc1`, 21.5 µM (inactive).
As for `CCN1CCN(c2ccc(S(=O)(=O)N3CCCCC3)cc2NC(=O)c2ccc([N+](=O)[O-])s2)CC1`, the 50% inhibitory concentration (IC50) was 7.39 µM.
With `c1ccc(Nc2nc(Nc3ccccc3)nc(N3CCNCC3)n2)cc1` the figure was 12 µM (inactive); with `CCOC(=O)c1cc(-c2c(Cl)cccc2Cl)no1`, 2.22 µM.
With `Cc1nnc(C)n1/N=C/c1cc(Br)cc(Br)c1O`, the IC50 is 11.3 µM (inactive).
`CC(OC(=O)c1ccc([N+](=O)[O-])s1)C(=O)NC1CCCCC1C` (stereo unspecified): the IC50 is 0.24 µM.
With `Cc1ccc(Sc2ccc(/C=C3/C(=O)NN(c4ccccc4)C3=O)o2)cc1` the figure was 4.23 µM; with `N/C(=N\OC(=O)c1cccs1)c1ccccc1`, 24 µM (inactive); with `CC(C)c1nnc(NC(=O)c2sc3ccccc3c2Cl)s1`, 9.84 µM.
Consider `O=C(Nc1nnc(-c2ccc3c(c2)CCCC3)o1)c1c(F)cccc1F`, for which the 50% inhibitory concentration (IC50) was 3.12 µM.
With `O=C(O)c1ccccc1-c1ccccc1C(=O)Nc1nc2ccccc2s1` the figure was 6.29 µM; with `Cc1ccc(NC(=O)COc2ccc(-n3ccnc3)cc2)cc1Cl`, 6.44 µM; with `COC(=O)CCCC(=O)N1CCCC(C(=O)c2ccc(-c3ccccc3)cc2)C1` (stereo unspecified), 35.8 µM (inactive).
To `NC(=O)C1CCN(C2CC(=O)NC2=O)CC1` (stereo unspecified) belongs 15.7 µM (inactive); to `O=C(NCC1CCN(c2ccc(S(=O)(=O)N3CCOCC3)cc2)CC1)c1ccc(Cl)cc1`, 24.1 µM (inactive); to `CC(C)=CC1C(C(=O)Nc2ccc(Br)cn2)C1(C)C` (stereo unspecified), 3.57 µM.
To `Cc1ccccc1C(=O)NN1CC(C(=O)OCc2ccc(Cl)c(Cl)c2)CC1=O` (stereo unspecified) belongs 14.1 µM (inactive).
Regarding `C=CCn1c(O)c(C2=c3ccccc3=NC2=O)c2ccccc21`, the IC50 is 2.68 µM.
As to `C#CCSc1nnc(-c2ccc(O)cc2)o1`, the concentration for half-maximal inhibition (IC50) is 7.34 µM.
With `CCn1c(O)c(C(=O)CC2NCCc3ccccc32)c(=O)n(CC)c1=S` (stereo unspecified) the figure was 21.8 µM (inactive); with `Cc1ccc(N=Nc2c(C)[nH]n(C(N)=S)c2=O)cc1`, 2.35 µM; with `O=C(Nc1cccnc1)c1ccc(-c2ccc(Cl)cc2)o1`, 5.13 µM.
In the case of `CNC(C)C#Cc1ccc2oc3cc(C)c(C)cc3c(=O)c2c1` (stereo unspecified), the IC50 was 7.55 µM.
To `CCOC(=O)COc1c(-c2ccc(OC)cc2)oc2ccccc2c1=O` belongs 4.43 µM.
Turning to `O=C(OCCCCN1C(=O)c2ccccc2C1=O)c1ccc(Br)o1`, the IC50 was 6.06 µM.
With `O=C(Cc1cccs1)N/N=C\c1ccc([N+](=O)[O-])s1` the figure was 11.6 µM (inactive); with `O=C(Nc1nccs1)c1ccc2ccccc2c1`, 13.8 µM (inactive); with `O=C(CC(=O)c1cc(Cl)ccc1O)c1ccccc1`, 2.65 µM.
`C=CCc1cc(Cl)ccc1OCCCn1ccnc1`: the concentration for half-maximal inhibition (IC50) is 8.18 µM.
To `CCc1ccc(C2=C/C(=C/c3cccnc3)C(=O)O2)cc1` belongs 21.2 µM (inactive); to `CC(C)C[C@H]1CN=C(Nc2ccccc2)N1CCCC1CCCCC1`, 8.79 µM.
Take `COc1ccc(C(=O)Nc2nnc(-c3ccccc3)o2)cc1OC`: the IC50 is 10.4 µM (inactive).
In the case of `Cc1ccc(CNC(=O)c2cnccn2)cc1`, the concentration for half-maximal inhibition (IC50) is 1.36 µM.
With `CC(NC(=O)c1cc2ccccc2oc1=O)c1ccccc1` (stereo unspecified) the figure was 0.86 µM.
With `S=c1c2c(nc3nc[nH]n13)CCC2` the figure was 4.68 µM.
To `O=C(COC(=O)c1cc2ccccc2oc1=O)Nc1ccc(F)cc1F` belongs 10.3 µM (inactive); to `COc1cc(OC)cc(C(=O)Oc2c(CN3CCOCC3)cc(Cl)c3cccnc23)c1`, 7.87 µM.
On to `Cc1nnsc1C(=O)N/N=C/c1ccc2ccccc2c1O`, for which the IC50 was 0.48 µM.
With `N=c1oc2ccccc2cc1C(=O)NC1CCCCCC1` the figure was 7.31 µM; with `COc1ccc2cc(C(=O)C3CCCN(Cc4ccccn4)C3)ccc2c1` (stereo unspecified), 6.59 µM.
To `C#CCSc1nnc(-c2ccc(C)cc2)o1` belongs 0.82 µM; to `O=C(COC(=O)c1ccc(Br)o1)NC1CCCCC1`, 9.79 µM; to `CCCOc1ccc(CCC(=O)N/N=C/c2ccc([N+](=O)[O-])o2)cc1`, 4.22 µM.
With `O=C(Nc1nnc(-c2ccc(Cl)cc2)o1)C1=COCCO1` the figure was 14 µM (inactive).
`CCCCCCn1c(=O)c(C(=O)Nc2cnccn2)c(O)c2ccccc21`: the IC50 is 2.4 µM.
In the case of `COC(=O)c1c(NC(=O)c2ccc([N+](=O)[O-])o2)sc2c1CCN(C(C)C)C2`, the concentration for half-maximal inhibition (IC50) is 0.15 µM.
Turning to `CC(C)c1ccc(OCC(=O)NC2=NCCS2)cc1`, the IC50 was 22.2 µM (inactive).
With `COc1ccc(/C=N/Nc2cc(C)nc(-n3nc(C)cc3C)n2)c(OC)c1` the figure was 3.3 µM; with `COc1ccc(/C(C)=N/Nc2ncc(Cl)cc2Cl)c(O)c1`, 4.51 µM.
With `CC(C)c1ccc(OCC(=O)NCc2ccccc2)cc1` the figure was 19.2 µM (inactive); with `CCN1CSC(=S)N(Cc2ccc(OC)cc2)C1`, 18.5 µM (inactive); with `COc1ccc2cc(C(=O)NCc3ccccc3CN3CCCC3)ccc2c1`, 17.7 µM (inactive).
To `O=C(Nc1nc2ccccc2n1CCOc1ccc(Cl)cc1)c1ccco1` belongs 14.4 µM (inactive); to `COC(=O)C1=C(C)N(Cc2ccccc2)C(=NCc2ccccc2)N[C@H]1c1cccc(F)c1`, 6.37 µM.
As for `CCOC(=O)COc1ccc2c(=O)c(-c3ccccc3OC)coc2c1`, the IC50 is 2.28 µM.
For `Cc1cc2cc(CNC(=O)COc3ccccc3)ccc2n1C`, the IC50 was 26 µM (inactive).
With `N#Cc1nc(-c2cccs2)oc1NCCc1ccccc1` the figure was 4.77 µM.
As to `CCCCCn1c(=O)c(C(=O)Nc2nc(CC(=O)OCC)cs2)c(O)c2ccccc21`, the IC50 was 2.39 µM.
On to `CC(C)(C)OC(=O)N/N=C\c1ccc(OC(=O)c2ccco2)cc1`, for which the IC50 was 12.6 µM (inactive).
In the case of `O=C(Oc1cccc([N+](=O)[O-])c1)c1ccc2c(=O)n3c(nc2c1)CCC3`, the IC50 is 6.82 µM.
For the compound `O=C(COc1ccc(Br)cc1)N/N=C1/SCC(=O)N1Cc1ccccc1`, the IC50 is 13 µM (inactive).
To `Cc1cc(Cl)ccc1OC(C)C(=O)Nc1ccc([N+](=O)[O-])cn1` (stereo unspecified) belongs 23.3 µM (inactive); to `CCCNC(=O)c1ccc(COc2ccc(C)cc2)o1`, 32.9 µM (inactive).
As for `CC(=O)OCCN(C)c1cc(SC(C)C)c2nonc2c1[N+](=O)[O-]`, the IC50 was 13.7 µM (inactive).
As for `CC1(c2nnc(Cc3ccccc3)o2)CC(c2ccccc2[N+](=O)[O-])=NO1` (stereo unspecified), the IC50 was 10.5 µM (inactive).
`C=CCn1c(NC(=O)c2ccccc2)nc2ccccc21`: the IC50 was 21.6 µM (inactive).
With `COc1ccc(C(=O)NNC(=S)NC(=O)c2cccc([N+](=O)[O-])c2)cc1` the figure was 11.8 µM (inactive); with `O=C(NC12CC3CC(CC(C3)C1)C2)c1ccc([N+](=O)[O-])o1`, 5.44 µM.
As for `O=C(CCNc1ccc(Cl)cc1)c1cccs1`, the IC50 was 3.79 µM.
With `Cc1ccc(Oc2c(C(N)=O)cc([N+](=O)[O-])cc2[N+](=O)[O-])cc1` the figure was 2.2 µM.
To `O=C(N/N=C/c1ccc[nH]1)c1ccncc1` belongs 2.22 µM.
With `CC(C)CCC1=NN(C(=O)c2ccco2)C(O)(C(F)(F)F)C1` (stereo unspecified) the figure was 0.94 µM; with `CCCCCC/C(=N/O)c1ccccn1`, 11.6 µM (inactive).
As to `Cc1cccc(NCCC(=O)c2ccc([N+](=O)[O-])cc2)c1C`, the half-inhibitory concentration (IC50) is 3.58 µM.
To `COc1ccc(C(=O)CCNc2ccc(F)cc2)cc1` belongs 5.22 µM.

By IC50 is commonly meant the concentration that gives 50% inhibition.

For the origin of these results see PubChem BioAssay AID488890 (Southern Research Specialized Biocontainment Screening …, 2010).
